In patent publication US11414424B2, “Cardiac sarcomere inhibitors” (Cytokinetics, Inc., priority 2018, dated 2022):

System: bovine cardiac myofibrils
Experiment: Myofibril assay: PK/LDH-coupled steady-state ATPase activity of skinned bovine cardiac myofibrils
Assay type: biochemical
Settings: Ca2+ activating to 75% of maximal rate
How it was run: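 Steady-state ATPase of detergent-skinned bovine left-ventricular myofibrils (1 mg/mL), PK/LDH-coupled NADH read at 340 nm, in PIPES/MgCl2 buffer pH 6.8 with 50 μM ATP, 0.6 mM EGTA and CaCl2 set for 50% or 75% activation. Inhibition of activity measured.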

| SMILES | CDMF75 IC15 [µM] |
| --- | --- |
| CC(C)N1CC(=O)N(Cc2ccc(Cl)cc2)C(c2ccc(Cl)cc2)C1=O (racemic) [Compound 288, 3-(4-chlorophenyl)-4-[(4-chlorophenyl)methyl]-1-(propan-2-yl)piperazine-2,5-dione] | 1.8 |
| CC(C)N1CC(=O)N(Cc2ccc(Cl)cc2)C2(CCN(c3ccc(F)cn3)C2)C1=O (stereo not drawn) [Compound 92, 6-(4-chlorobenzyl)-2-(5-fluoropyridin-2-yl)-9-isopropyl-2,6,9-triazaspiro[4.5]decane-7,10-dione] | 1.0 |
| COc1cnc(N2CC(=O)N(Cc3ccc(C)c(F)c3)C(C3COC3)C2=O)c(F)c1 (stereo not drawn) [Compound 761, 4-(3-fluoro-4-methyl-benzyl)-1-(3-fluoro-5-methoxypyridin-2-yl)-3-(oxetan-3-yl)piperazine-2,5-dione] | 16.3 |
| COC(=O)C12CC(C3C(=O)N(c4ncc(Cl)cc4F)CC(=O)N3Cc3ccc(F)cc3)(C1)C2 (stereo not drawn) [Compound 780, methyl 3-(4-(5-chloro-3-fluoropyridin-2-yl)-1-(4-fluorobenzyl)-3,6-dioxopiperazin-2-yl)bicyclo[1.1.1]pentane-1-carboxylate] | 3.6 |
| CC(C)N1CC(=O)N(Cc2ccc(C(F)(F)F)cc2)C2(CN(C=O)C2)C1=O [Compound 69, 8-isopropyl-6,9-dioxo-5-(4-(trifluoromethyl)benzyl)-2,5,8-triazaspiro[3.5]-nonane-2-carbaldehyde] | 15.4 |
| Cc1cc(N2CCC3(C2)C(=O)N(C(C)C)CC(=O)N3Cc2ccc(C(F)(F)F)cc2)ccn1 (stereo not drawn) [Compound 72, 9-isopropyl-2-(2-methylpyridin-4-yl)-6-(4-(trifluoromethyl)benzyl)-2,6,9-triazaspiro[4.5]-decane-7,10-dione] | 9.0 |
| O=C1C(C2COC2)N(Cc2ccc(C(F)(F)F)cc2)C(=O)CN1c1ccc(Cl)c(F)c1 (stereo not drawn) [Compound 747, 1-(4-chloro-3-fluorophenyl)-3-(oxetan-3-yl)-4-(4-(trifluoromethyl)benzyl)-piperazine-2,5-dione] | 3.7 |
| CNC(=O)N1CC2(C1)C(=O)N(Cc1ccc(C(F)(F)F)cc1)CC(=O)N2Cc1ccc(C(F)(F)F)cc1 [Compound 335, N-methyl-6,9-dioxo-5,8-bis(4-(trifluoromethyl)benzyl)-2,5,8-triazaspiro[3.5]nonane-2-carboxamide] | 12.2 |
| O=C1C(C2CC(O)C2)N(Cc2ccc(C(F)(F)F)cc2)C(=O)CN1c1ncc(Cl)cc1F (single isomer, unassigned) [Compound 740B, 1-(5-chloro-3-fluoropyridin-2-yl)-3-(3-hydroxycyclobutyl)-4-(4-(trifluoromethyl)benzyl)piperazine-2,5-dione] | 0.97 |
| CNC(=O)N1CC2(C1)C(=O)N(c1ccc(C(F)(F)F)cc1)CC(=O)N2Cc1ccc(C(F)(F)F)cc1 [Compound 151, N-methyl-6,9-dioxo-5-(4-(trifluoromethyl)benzyl)-8-(4-(trifluoromethyl)phenyl)-2,5,8-triazaspiro[3.5]nonane-2-carboxamide] | 12.2 |
| Cc1cc(N2CCC3(C2=O)C(=O)N(C(C)C)CC(=O)N3Cc2ccc(Cl)cc2)ccn1 (stereo not drawn) [Compound 333, 6-(4-chlorobenzyl)-9-isopropyl-2-(2-methyl-pyridin-4-yl)-2,6,9-triazaspiro[4.5]decane-1,7,10-trione] | 16.6 |
| CNC(=O)N1CC2(C1)C(=O)N(c1ccc(C#N)cc1F)CC(=O)N2Cc1ccc(C(F)(F)F)cc1 [Compound 169, 8-(4-cyano-2-fluorophenyl)-N-methyl-6,9-dioxo-5-(4-(trifluoromethyl)benzyl)-2,5,8-triazaspiro[3.5]nonane-2-carboxamide] | 0.2 |
| Cc1cc(Cl)cnc1N1CC(=O)N(Cc2ccc(Cl)cc2)[C@@H](C(C)C)C1=O [Compound 660, (S)-1-(5-chloro-3-methylpyridin-2-yl)-4-(4-chlorobenzyl)-3-isopropyl-piperazine-2,5-dione] | 0.84 |
| Cc1cc(Cl)cnc1N1CC(=O)N(Cc2ccc(Cl)cc2)C2(CN(c3ccc(F)cn3)C2)C1=O [Compound 884, 8-(5-chloro-3-methyl-pyridin-2-yl)-5-(4-chloro-benzyl)-2-(5-fluoropyridin-2-yl)-2,5,8-triazaspiro[3.5]-nonane-6,9-dione] | 0.5 |
| COC(=O)C12CC(C3C(=O)N(c4ncc(Cl)cc4F)CC(=O)N3Cc3ccc(C(F)F)cc3)(C1)C2 (stereo not drawn) [Compound 779, methyl 3-(4-(5-chloro-3-fluoropyridin-2-yl)-1-(4-(difluoromethyl)benzyl)-3,6-dioxopiperazin-2-yl)bicyclo[1.1.1]pentane-1-carboxylate] | 2.9 |
| N#Cc1ccc(N2CC(=O)N(Cc3ccc(C(F)(F)F)cc3)C3(CCOC3)C2=O)c(F)c1 (stereo not drawn) [Compound 286, 4-(7,10-dioxo-6-(4-(trifluoromethyl)benzyl)-2-oxa-6,9-diazaspiro[4.5]decan-9-yl)-3-fluorobenzonitrile] | 0.7 |

Second part, the compound after the results:

| CDMF75 IC15 [µM] | SMILES |
| --- | --- |
| 7.5 | CC(C)N1C(=O)C2(CN(c3ccc(F)cc3)C2)N(Cc2ccc(Cl)cc2)C(=O)C1C (stereo not drawn) [Compound 20, 5-(4-chlorobenzyl)-2-(4-fluorophenyl)-8-isopropyl-7-methyl-2,5,8-triazaspiro[3.5]nonane-6,9-dione] |
| 2.68 | CC(=O)N1CC2(C1)CC1(C2)C(=O)N(c2ncc(Cl)cc2F)CC(=O)N1Cc1ccc(F)cc1 [Compound 827, 2-acetyl-10-(5-chloro-3-fluoropyridin-2-yl)-7-(4-fluorobenzyl)-2,7,10-triazadispiro[3.1.56.14]-dodecane-8,11-dione] |
| 2.1 | O=C1C(C2COC2)N(Cc2ccc(F)c(F)c2)C(=O)CN1c1ncc(Cl)cc1F (stereo not drawn) [Compound 647, 1-(5-chloro-3-fluoropyridin-2-yl)-4-(3,4-difluorobenzyl)-3-(oxetan-3-yl)piperazine-2,5-dione] |
| 4.0 | C[C@@H](c1ccc(Cl)cc1)N1C(=O)CN(c2ncc(Cl)cc2F)C(=O)C12CN(CC(F)F)C2 [Compound 566, (S)-8-(5-chloro-3-fluoro-pyridin-2-yl)-5-(1-(4-chlorophenyl)ethyl)-2-(2,2-difluoroethyl)-2,5,8-triazaspiro[3.5]nonane-6,9-dione] |
| 0.8 | CC(C)N1CC(=O)N(Cc2ccc(Cl)cc2)C2(CCN(c3ccccc3)C2)C1=O (stereo not drawn) [Compound 127, 6-(4-chlorobenzyl)-9-isopropyl-2-phenyl-2,6,9-triazaspiro[4.5]decane-7,10-dione] |
| 36.0 | CC(C)N1CC(=O)N(Cc2ccc(Cl)cn2)C(c2ccc(Cl)cc2)C1=O (stereo not drawn) [Compound 293, 3-(4-chlorophenyl)-4-((5-chloropyridin-2-yl)methyl)-1-isopropylpiperazine-2,5-dione] |
| 15.8 | CC(=O)N1CC2(C1)C(=O)N(c1ccc(C#N)cc1)CC(=O)N2Cc1ccc(C(F)(F)F)cc1 [Compound 186, 4-(2-acetyl-6,9-dioxo-5-(4-(trifluoromethyl)benzyl)-2,5,8-triazaspiro[3.5]nonan-8-yl)benzonitrile] |
| 0.2 | CC(C)(C)OC(=O)[C@H]1C[C@]2(C1)C(=O)N(c1ccc(C#N)cc1F)CC(=O)N2Cc1ccc(C(F)(F)F)cc1 [Compound 429B] |
| 3.7 | O=C1C(C2CCOCC2)N(Cc2ccc(C(F)(F)F)cc2)C(=O)CN1c1ncc(Cl)cc1F (stereo not drawn) [Compound 688, 1-(5-chloro-3-fluoropyridin-2-yl)-3-(tetrahydro-2H-pyran-4-yl)-4-(4-(trifluoro-methyl)benzyl)piperazine-2,5-dione] |
| 18.3 | CC(C)N1CC(=O)N(Cc2ccc(Cl)cc2)C2(CCN(C(N)=O)C2)C1=O (stereo not drawn) [Compound 120, 6-(4-chlorobenzyl)-9-isopropyl-7,10-dioxo-2,6,9-triazaspiro[4.5]decane-2-carboxamide] |
| 18.7 | CC(=O)NCC1(C)C(=O)N(c2ncc(Cl)cc2F)CC(=O)N1Cc1ccc(C(F)(F)F)cc1 (racemic) [Compound 630, N-((4-(5-chloro-3-fluoropyridin-2-yl)-2-methyl-3,6-dioxo-1-(4-(trifluoromethyl)benzyl)piperazin-2-yl)methyl)acetamide] |
| 19.8 | CC(C)N1CC(=O)N(Cc2ccc(C(F)(F)F)cc2)C2(CCN(C(=O)Nc3ccncc3)C2)C1=O (stereo not drawn) [Compound 111, 9-isopropyl-7,10-dioxo-N-(pyridin-4-yl)-6-(4-(trifluoromethyl)benzyl)-2,6,9-triazaspiro[4.5]-decane-2-carboxamide] |
| 2.4 | COC(=O)C12CC(C3C(=O)N(c4ncc(Cl)cc4F)CC(=O)N3Cc3ccc(C(F)(F)F)cc3)(C1)C2 (stereo not drawn) [Compound 778, methyl 3-(4-(5-chloro-3-fluoropyridin-2-yl)-3,6-dioxo-1-(4-(trifluoro-methyl)benzyl)piperazin-2-yl)bicydo[1.1.1]pentane-1-carboxylate] |
| 3.4 | O=C1C(C2COC2)N(Cc2ccc(F)cc2)C(=O)CN1c1ccc(Br)cc1F (stereo not drawn) [Compound 700, 1-(4-bromo-2-fluoro-phenyl)-4-(4-fluorobenzyl)-3-(oxetan-3-yl)piperazine-2,5-dione] |
| 30.9 | CC(C)N1CC(=O)N(Cc2ccc(Cl)cc2)C2(CC(=O)N(c3ccccc3)C2)C1=O (stereo not drawn) [Compound 331, 6-(4-chlorobenzyl)-9-isopropyl-2-phenyl-2,6,9-triazaspiro[4.5]decane-3,7,10-trione] |
| 0.5 | O=C1CN(c2ccc(Cl)cc2F)C(=O)C2(CCC2)N1Cc1ccc(C(F)(F)F)cc1 [Compound 272, 8-(4-chloro-2-fluorophenyl)-5-(4-(trifluoromethyl)-benzyl)-5,8-diazaspiro-[3.5]nonane-6,9-dione] |
| 1.26 | CC(=O)N1CC2(C1)CC1(C2)C(=O)N(c2ncc(Cl)cc2F)CC(=O)N1Cc1ccc(C(F)F)cc1 [Compound 826, 2-acetyl-10-(5-chloro-3-fluoropyridin-2-yl)-7-(4-(difluoromethyl)benzyl)-2,7,10-triazadispiro-[3.1.56.14]dodecane-8,11-dione] |
